Results published in patent publication US11833185B2, “Anti-neurodegenerative therapeutic, method of manufacture, and use” (UNIVERSITY OF KENTUCKY RESEARCH FOUNDATION, priority 2017, dated 2023).
Where two headings read alike, the source gives them in different places. Where a SMILES comes first, the peptide text is derived from it.

Columns and labels:
MN9D neuronal cells [1] = test: LIVE/DEAD and JC-1 assays for toxicity and loss of mitochondrial potentials; settings: 100 nM, 1 and 3 hours post treatment
Method: (§1) Testing involved permutations of size and diversifying amino acid sequence at each residue position. Sequence design began with Proline-Proline-Glutamate-Alanine-Proline-Alanine-Glutamate-Aspartate-Arginine-Serine-Leucine-NH2. […] These properties were tested using the dopaminergic MN9D neuronal cell line. Each candidate peptide sequence was dissolved in citrate buffer and added to MN9D cells (Choi et al., 1992) that were cultured in Dulbecco's Modified Eagle's Medium [DMEM (containing pyridoxol HCl); Sigma, St. Louis, MO] supplemented with 10% Fetal Bovine serum (HyClone, Logan, UT), 50 U/ml penicillin and streptomycin to a final 100 nM concentration. Using LIVE/DEAD and JC-1 assays in MN9D neuronal cells, individual library sequences were measured for toxicity and loss of mitochondrial potentials at 1 and 3 hours post treatment. […] The remaining sequences were then tested for their ability to provide protection against neurotoxins rotenone, 1-methyl-4-phenylpyridinium (MPP+), and trichloromethyl-1,2,3,4-tetrahydro-β-carboline (TaClo).

MN9D neuronal cells [2] = test: Protection of mitochondrial potentials against rotenone, MPP+ and TaClo-induced cytotoxicity; format: cell-based; settings: 100 nM pretreatment, 1, 3, 12, 24 hours
Method: as §1

[3] = test system: striatum levels of DA, DOPAC, HVA, 5-HT, 5-HIAA, and NE; test: Striatum neurochemistry (RP-HPLC EC) after repeated intranasal administration; format: in vivo, normal Fischer 344 rats; settings: for Turnover ratio 5-H1AA/5-HT / Turnover ratio (HVA + DOPAC)/DA / Turnover ratio DOPAC/DA / Turnover ratio HVA/DA / 5-HIAA / 5-HT / DA / DOPAC / HVA / NE: 5 days a week for 3 weeks, combined left and right striatum, mean; for 5-HIAA / 5-HT / DA / DOPAC / HVA / NE: wet tissue weight
Method: (§2) Groups of 12, 3 month old Fischer 344 rats were intranasally dosed 50 microliters (4 single 12.5 microliter administrations, 2 per nare, 5 minutes between each nare administration) of either vehicle, 1.1 mg/mL, or 3.5 mg/mL of AV6403 [Leu-Ala-Pro-Ala-Glu-Asp-NH2] (SEQ ID NO: 1) once a day for 5 days a week, for 3 weeks (5 consecutive days of dosing, 2 off days, repeated total of 3 times). Following day 21, rats were euthanized and brain tissue was recovered and sections removed and weighed for neurochemical analysis by Reverse-Phase High Pressure Liquid Chromatography Electrochemical detection (RP-HPLC EC).
Dopamine [DA], its major metabolites 3,4-Dihydroxy-Phenylacetic Acid (DOPAC) and Homovanillic Acid (HVA), 5-hydroxytryptamine (5-HT, serotonin), its metabolite 5-hydroxyindoleacetic acid (5-HIAA), and norepinephrine (NE) were measured in the striatum and substantia nigra (SN) for each group. In the striatum [TABLE 1], 1.1 mg/mL dosing of AV6403 led to a 20% and 25% reduction of DA and HVA levels [FIG. 1A-FIG. 1C], respectively, resulting in an increase in dopamine turnover (22% [DOPAC/DA] and 16% [[(HVA+DOPAC)/DA]), relative to saline vehicle treated rats [FIG. 2A-FIG. 2B]. […] NE levels were reduced in the striatum with about a 36% reduction for AV6403 1.1 mg/mL dosage versus vehicle [TABLE 1].
(§3) Groups of 12, 3 month old Fischer 344 rats were intranasally dosed 50 microliters (4 single 12.5 microliter administrations, 2 per nare, 5 minutes between each nare administration) of either vehicle, 1.2 mg/mL, or 3.6 mg/mL of AV7624 [Glu-Ala-Pro-Phe-Glu-Asp-NH2] once a day for 5 days a week, for 3 weeks (5 consecutive days of dosing, 2 off days, repeated total of 3 times). Following day 21, rats were euthanized and brain tissue was recovered and sections removed and weighed for neurochemical analysis by RP-HPLC EC.
DA, DOPAC, HVA, 5-HT, 5-HIAA, and NE were measured in the striatum and SN for each group. In the striatum [TABLE 5], 3.6 mg/mL dosing of AV7624 led to an approximate 18%, 39%, and 30% reduction of DA, DOPAC, and HVA levels [FIG. 6A-FIG. 6C], respectively, resulting in an about 18% decrease in dopamine turnover ([DOPAC/DA] and [(HVA+DOPAC)/DA]), relative to saline vehicle treated rats [FIG. 7A-FIG. 7B]. […] NE levels were reduced in the striatum in a dose dependent manner, with about a 32% reduction for the AV7624 3.6 mg/mL dosage versus vehicle [TABLE 5]

[4] = rat, in vivo, sc, 100 mg/kg
[5] = Plasma levels by LC-MS/MS after subcutaneous administration; format: in vivo, rat; settings: for Cmax: rat, plasma, sc, read-out: maximum plasma levels
[6] = test system: substantia nigra levels of DA, DOPAC, HVA, 5-HT, 5-HIAA, and NE; test: Substantia nigra neurochemistry (RP-HPLC EC) after repeated intranasal administration; format: in vivo, normal Fischer 344 rats; settings: for Turnover ratio 5-HIAA/5-HT / Turnover ratio (HVA + DOPAC)/DA / Turnover ratio DOPAC/DA / Turnover ratio HVA/DA / 5-HIAA / 5-HT / DA / DOPAC / HVA / NE: 5 days a week for 3 weeks, combined left and right substantia nigra, mean; for 5-HIAA / 5-HT / DA / DOPAC / HVA / NE: wet tissue weight
Method: as §2
In the SN [TABLE 3], treatment of AV6403 led to about a 13% increase in DOPAC and a 11% reduction of HVA, depending on the dosage, [FIG. 4A-FIG. 4C] resulting in an increase in dopamine turnover (20% [DOPAC/DA] for 3.5 mg/mL dosage; 23% [(HVA+DOPAC)/DA] for 1.1 mg/mL) relative to saline vehicle treated rats [FIG. 5A-FIG. 5B]. Treatment with 1.1 mg/mL AV6403 decreased 5-HT by 10% in the SN, resulting in a 16% increase in serotonin turnover [5-HIAA/5-HT] [TABLE 4]. The higher dosage (3.5 mg/mL AV6403) increased NE levels in the SN by about 23% versus vehicle treated rats, respectively [TABLE 3].
as §3
In the SN [TABLE 7], treatment with 3.6 mg/mL AV7624 led to about a 23%, 22%, and a 6% decrease in DA, DOPAC, and HVA [FIG. 9A-FIG. 9C], relative to saline vehicle treated rats, with minor effects on dopamine turnover [FIG. 10A-FIG. 10B]. Treatment with 3.6 mg/mL AV7624 decreased 5-HT by 20% and 5-HIAA by about 18% in the SN [TABLE 7], resulting in a minor effect on serotonin turnover [TABLE 8]. NE levels in the SN were decreased (17% and 13%) by both dosages (1.2 mg/mL and 3.6 mg/mL) versus vehicle treated rats, respectively [TABLE 7].

depression = settings: person, intranasal spray 50 mg daily for 270 days
Method: A person presents with the diagnosis of depression. They are administered peptide by intranasal spray at a dosage of 50 mg daily for 270 days. At 1, 90, 180, 270 and 360 days they are tested/retested with a battery of mental status tests including Hamilton Depression Scale (HAMD), Mini Mental Status Exam (MMSE), Beck Depression Index (BDI), Montgomery-Asberg Depression Rating Scale (MADRS), Clinical Global Impression Scale (CGI), Patient Global Impression Scale (PGI), Structural Clinical Interview for Diagnostic and Statistic Manual of Mental Disorders IV (SCID).

[7] = 1.1 mg/mL intranasal, striatum, relative to saline vehicle treated rats
[8] = 1.1 mg/mL repeated intranasal, striatum, relative to saline treated rats
[9] = SN, depending on the dosage, relative to saline vehicle treated rats

For `C[C@H](NC(=O)[C@@H]1CCCN1C(=O)[C@H](C)NC(=O)[C@@H](N)CCC(=O)O)C(=O)N[C@@H](CCC(=O)O)C(=O)N[C@@H](CC(=O)O)C(N)=O` [SEQ ID NO: 11, Glutamate-Alanine-Proline-Alanine-Glutamate-Aspartate-NH2] (H-EAPAED-NH2; N-terminus assumed), which toxicity (MN9D neuronal cells [1]) is on record?
Its toxicity is “low toxicity”.

And the “protection against neurotoxins (rotenone, MPP+, TaClo)” value (MN9D neuronal cells [2])?
The value was “protection against neurotoxin exposure at all time points measured”.

What does the source list for `CC(C)C[C@H](N)C(=O)N[C@@H](C)C(=O)N1CCC[C@H]1C(=O)N[C@@H](C)C(=O)N[C@@H](CCC(=O)O)C(=O)N[C@@H](CC(=O)O)C(N)=O` [AV6403, Leu-Ala-Pro-Ala-Glu-Asp-NH2] (H-LAPAED-NH2; N-terminus assumed)?
increase in dopamine turnover [(HVA+DOPAC)/DA] [3, 7]: 16%; increase in dopamine turnover [DOPAC/DA] [3, 7]: 22%; reduction of DA levels [3, 7]: 20%; reduction of HVA levels [3, 7]: 25%; reduction of NE levels ([3]; 1.1 mg/mL intranasal, striatum, versus vehicle): ~36%; increase in turnover [5-HIAA/5-HT] [3, 8]: 19%; reduction of 5-HIAA [3, 8]: ~19%; reduction of 5-HT [3, 8]: ~32%; Turnover ratio 5-H1AA/5-HT ([3]; 1.1 mg/ml intranasal): 1.28; Turnover ratio (HVA + DOPAC)/DA ([3]; 1.1 mg/ml intranasal): 0.36; Turnover ratio DOPAC/DA ([3]; 1.1 mg/ml intranasal): 0.28; Turnover ratio HVA/DA ([3]; 1.1 mg/ml intranasal): 0.08; 5-HIAA ([3]; 1.1 mg/ml intranasal): 326 ng/g; 5-HT ([3]; 1.1 mg/ml intranasal): 257 ng/g; DA ([3]; 1.1 mg/ml intranasal): 9425 ng/g; DOPAC ([3]; 1.1 mg/ml intranasal): 2618 ng/g; HVA ([3]; 1.1 mg/ml intranasal): 699 ng/g; NE ([3]; 1.1 mg/ml intranasal): 45 ng/g; changes in DA turnover ([3]; 3.5 mg/mL intranasal, striatum): minor changes; increase of striatal DA levels ([3]; 3.5 mg/mL intranasal, striatum): 8%; increase of striatal DOPAC levels ([3]; 3.5 mg/mL intranasal, striatum): 11%; Turnover ratio 5-H1AA/5-HT ([3]; 3.5 mg/ml intranasal): 1.11; Turnover ratio (HVA + DOPAC)/DA ([3]; 3.5 mg/ml intranasal): 0.31; Turnover ratio DOPAC/DA ([3]; 3.5 mg/ml intranasal): 0.23; Turnover ratio HVA/DA ([3]; 3.5 mg/ml intranasal): 0.08; 5-HIAA ([3]; 3.5 mg/ml intranasal): 437 ng/g; 5-HT ([3]; 3.5 mg/ml intranasal): 393 ng/g; DA ([3]; 3.5 mg/ml intranasal): 12475 ng/g; DOPAC ([3]; 3.5 mg/ml intranasal): 2922 ng/g; HVA ([3]; 3.5 mg/ml intranasal): 935 ng/g; NE ([3]; 3.5 mg/ml intranasal): 66 ng/g; change of 5-HT, 5-HIAA and turnover ([3]; higher dosage (3.5 mg/mL) intranasal, striatum, relative to saline treated rats): small increases; half-life [4]: 50 to 60 min; plasma lifetime as compared to the extracellular brain levels ([5]; 30 and 100 mg/kg s.c.): longer lifetime; time of maximum plasma levels post administration ([5]; 30 and 100 mg/kg s.c.): 20 to 40 min; Cmax ([5]; 30 mg/kg s.c.): 3500 ng/mL; Cmax ([5]; 100 mg/kg s.c.): 6000 ng/mL; decrease of 5-HT ([6]; 1.1 mg/mL intranasal, SN): 10%; increase in serotonin turnover [5-HIAA/5-HT] ([6]; 1.1 mg/mL intranasal, SN): 16%; increase in dopamine turnover [(HVA+DOPAC)/DA] ([6]; 1.1 mg/mL intranasal, SN, relative to saline vehicle treated rats): 23%; Turnover ratio 5-HIAA/5-HT ([6]; 1.1 mg/ml intranasal): 0.58; Turnover ratio (HVA + DOPAC)/DA ([6]; 1.1 mg/ml intranasal): 0.37; Turnover ratio DOPAC/DA ([6]; 1.1 mg/ml intranasal): 0.22; Turnover ratio HVA/DA ([6]; 1.1 mg/ml intranasal): 0.15; 5-HIAA ([6]; 1.1 mg/ml intranasal): 552 ng/g; 5-HT ([6]; 1.1 mg/ml intranasal): 1014 ng/g; DA ([6]; 1.1 mg/ml intranasal): 1122 ng/g; DOPAC ([6]; 1.1 mg/ml intranasal): 232 ng/g; HVA ([6]; 1.1 mg/ml intranasal): 102 ng/g; NE ([6]; 1.1 mg/ml intranasal): 554 ng/g; increase in dopamine turnover [DOPAC/DA] ([6]; 3.5 mg/mL intranasal, SN, relative to saline vehicle treated rats): 20%; increase of NE levels ([6]; 3.5 mg/mL intranasal, SN, versus vehicle treated rats): about 23%; Turnover ratio 5-HIAA/5-HT ([6]; 3.5 mg/ml intranasal): 0.54; Turnover ratio (HVA + DOPAC)/DA ([6]; 3.5 mg/ml intranasal): 0.34; Turnover ratio DOPAC/DA ([6]; 3.5 mg/ml intranasal): 0.24; Turnover ratio HVA/DA ([6]; 3.5 mg/ml intranasal): 0.11; 5-HIAA ([6]; 3.5 mg/ml intranasal): 546 ng/g; 5-HT ([6]; 3.5 mg/ml intranasal): 1050 ng/g; DA ([6]; 3.5 mg/ml intranasal): 1096 ng/g; DOPAC ([6]; 3.5 mg/ml intranasal): 253 ng/g; HVA ([6]; 3.5 mg/ml intranasal): 113 ng/g; NE ([6]; 3.5 mg/ml intranasal): 644 ng/g; increase in DOPAC [6, 9]: ~13%; reduction of HVA [6, 9]: 11%

For “Ac-Leucine-D-Methionine-Proline-Alanine-deuterated Serine-Phenylalanine [SEQ ID NO: 9]”, which “HAMD from day 1 over 360 days” value (depression) is on record?
Its value is “improvement in HAMD”.
